A short description of the test: In vitro antioxidant effect by the inhibition of AAPH-induced lysis of human red blood cells (RBC). In kind it is functional.

Molecules are shown by their SMILES.

For orientation: IC50 means the concentration at which inhibition is half-maximal. Turning to `NCCS[C@H]1c2c(O)cc(O)cc2O[C@H](c2ccc(O)c(O)c2)[C@@H]1O`, inhibition was half-maximal at 89.4 µM (IC50). With `N[C@@H](CS[C@H]1c2c(O)cc(O)cc2O[C@H](c2ccc(O)c(O)c2)[C@@H]1O)C(=O)O` the figure was 74.9 µM; with `Oc1cc(O)c2c(c1)O[C@H](c1ccc(O)c(O)c1)[C@H](O)C2` [(-)-EPICATECHIN], 120 µM.

(Values after ChEMBL document CHEMBL1137041, “Novel epicatechin derivatives with antioxidant activity modulate interleukin-1beta release in lipopolysaccharide-stimulated human blood” (Bioorg Med Chem Lett, 2004).)
